Active and inactive are the calls of the source. The rule behind the calls is not given here.
How the values were obtained:
Assay type in all cases: cell-based
Settings in all cases: tested as the 125I-labelled form
[1] = system: T1, Type-1 angiotensin II receptor (Homo sapiens), P30556 [N111G]; assay: Binding affinity to human AT1 receptor N111G constitutively active mutant expressed in CHO cells by photoaffinity labeling relative to untreated control
T1 sequence (whole entry): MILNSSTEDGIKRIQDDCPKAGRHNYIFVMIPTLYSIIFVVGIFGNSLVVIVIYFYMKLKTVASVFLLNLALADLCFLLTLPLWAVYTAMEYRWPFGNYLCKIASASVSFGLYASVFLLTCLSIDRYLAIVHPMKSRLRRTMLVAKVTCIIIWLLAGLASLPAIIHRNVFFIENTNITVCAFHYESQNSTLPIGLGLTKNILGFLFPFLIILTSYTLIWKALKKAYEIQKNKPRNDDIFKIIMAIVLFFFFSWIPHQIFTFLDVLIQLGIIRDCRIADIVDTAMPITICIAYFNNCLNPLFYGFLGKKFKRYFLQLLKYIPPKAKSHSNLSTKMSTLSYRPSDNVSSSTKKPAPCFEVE

[2] = system: T1, Type-1 angiotensin II receptor (Homo sapiens), P30556 [N111G]; assay: Binding affinity to Ile2-Met30 region of human AT1 receptor N111G constitutively active mutant expressed in CHO cells after PNGase-F cleavage by photoaffinity labeling
[3] = system: T1, Type-1 angiotensin II receptor (Homo sapiens), P30556 [N111G]; assay: Binding affinity to Thr61-Lys102 and Ala21-Lys58 regions of human AT1 receptor N111G constitutively active mutant expressed in CHO cells after Endo-Lys-C cleavage by photoaffinity labeling
[4] = system: T1, Type-1 angiotensin II receptor (Homo sapiens), P30556 [N111G]; assay: Binding affinity to Glu91-Met134 and Ala244-Met284 regions of human AT1 receptor N111G constitutively active mutant expressed in CHO cells after CNBr cleavage by photoaffinity labeling
[5] = system: T1, Type-1 angiotensin II receptor (Homo sapiens), P30556 [N111G]; assay: Binding affinity to Leu143-Met243 region of human AT1 receptor N111G constitutively active mutant expressed in CHO cells after PNGase-F cleavage by photoaffinity labeling

Row | Activity [1] | Activity [2] | Activity [3] | Activity [4] | Activity [5] | Compound
1 | Active | Active | Active | Active | – | CNCC(=O)N[C@@H](CCCNC(=N)N)C(=O)N[C@H](C(=O)N[C@@H](Cc1ccc(I)cc1)C(=O)N[C@@H](Cc1ccc(C2(C(F)(F)F)N=N2)cc1)C(=O)N[C@@H](Cc1cnc[nH]1)C(=O)N1CCC[C@H]1C(=O)N[C@@H](Cc1ccccc1)C(=O)O)C(C)C
2 | Active | – | – | – | Active | CC[C@H](C)[C@H](NC(=O)[C@H](Cc1ccc(I)cc1)NC(=O)[C@H](Cc1ccc(C(=O)c2ccccc2)cc1)NC(=O)[C@H](CCCNC(=N)N)NC(=O)CNC)C(=O)N[C@@H](Cc1cnc[nH]1)C(=O)N1CCC[C@H]1C(=O)N[C@@H](Cc1ccccc1)C(=O)O
3 | Active | Active | – | Active | Active | CC[C@H](C)[C@H](NC(=O)[C@H](Cc1ccc(I)cc1)NC(=O)[C@@H](NC(=O)[C@H](CCCNC(=N)N)NC(=O)[C@@H](N)Cc1ccc(C(=O)c2ccccc2)cc1)C(C)C)C(=O)N[C@@H](Cc1cnc[nH]1)C(=O)N1CCC[C@H]1C(=O)N[C@@H](Cc1ccccc1)C(=O)O
4 | Active | Active | Active | Active | – | CNCC(=O)N[C@@H](CCCNC(=N)N)C(=O)N[C@H](C(=O)N[C@@H](Cc1ccc(I)cc1)C(=O)N[C@@H](Cc1ccc(C(=O)c2ccccc2)cc1)C(=O)N[C@@H](Cc1cnc[nH]1)C(=O)N1CCC[C@H]1C(=O)N[C@@H](Cc1ccccc1)C(=O)O)C(C)C
5 | Active | – | – | Active | Active | CC[C@H](C)[C@H](NC(=O)[C@H](Cc1ccc(I)cc1)NC(=O)[C@@H](NC(=O)[C@H](Cc1ccc(C(=O)c2ccccc2)cc1)NC(=O)CNC)C(C)C)C(=O)N[C@@H](Cc1cnc[nH]1)C(=O)N1CCC[C@H]1C(=O)N[C@@H](Cc1ccccc1)C(=O)O
6 | Active | – | – | – | Active | CC[C@H](C)[C@H](NC(=O)[C@H](Cc1ccc(I)cc1)NC(=O)[C@H](Cc1ccc(C2(C(F)(F)F)N=N2)cc1)NC(=O)[C@H](CCCNC(=N)N)NC(=O)CNC)C(=O)N[C@@H](Cc1cnc[nH]1)C(=O)N1CCC[C@H]1C(=O)N[C@@H](Cc1ccccc1)C(=O)O

Reference: ChEMBL document CHEMBL1154979 (J Med Chem, 2010)
